Experimental data from patent publication US9283280B2, “Compositions for drug administration” (Aegis Therapeutics, LLC, priority 2008, dated 2016).

Legend:
blood D-glucose [1] = assay: Insulin eye drops with absorption enhancer in xylazine/ketamine-anesthetized hyperglycemic rats, blood D-glucose; type: in vivo, rat
blood D-glucose [2] = assay: Glucagon eye drops with surfactant in rats, elevation of blood D-glucose; settings: for Blood Glucose Concentration: glucagon eye drops + 0.5% surfactant added after 120 min
Description: Glucagon absorption from the eye was measured in rats given eye drops containing various surfactants plus glucagon (30 μg) (Eli Lilly, Indianapolis, Ind.) by monitoring an elevation in blood D-glucose levels. In these experiments, rats were anesthetized with sodium pentobarbital rather than xylazine/ketamin.
Paired animals that receive eye drops containing the surfactant alone, or glucagon alone, were compared to animals receiving eye drops with the surfactant plus glucagon.

[3] = Intranasal triptans with alkylsaccharide in rats, plasma levels by HPLC; type: in vivo;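 also: rats in groups of eight given 20 µL into one nostril, dose expressed as triptan free base, Cmax and Tmax read from plasma concentration–time curves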
Description: Each set of drug solutions is administered to six groups of eight rats each by 20 uL instillation to a single nare of each animal. […] After the last blood sample is collected each animal is cuthanizcd with CO2. After blood collection, plasma is immediately prepared from each blood sample using lithium/heparin as the anticoagulant. Plasma samples are stored at −70° C. until analyzed. […] The observed Tmax values from each plot is determined by inspection of the concentration vs time plots and recorded as shown in Table XII. The doses designated in this table reflect amounts of triptan free base in each case.

[4] = eye drops 0.2% insulin + 0.5% enhancer
[5] = insulin eye drops + 0.5% alkylglucoside
[6] = Naratriptan 0.22 mg/kg intranasal, alkylsaccharide 0.02%
[7] = Naratriptan 0.22 mg/kg intranasal, alkylsaccharide 0.05%
[8] = Naratriptan 0.22 mg/kg intranasal, alkylsaccharide 0.1%
[9] = Naratriptan 0.22 mg/kg intranasal, alkylsaccharide 0.5%
[10] = Naratriptan 0.22 mg/kg intranasal, alkylsaccharide 2%
[11] = Rizatriptan […] intranasal, alkylsaccharide 0.02%
[12] = Rizatriptan […] intranasal, alkylsaccharide 0.05%
[13] = Rizatriptan […] intranasal, alkylsaccharide 0.1%
[14] = Rizatriptan […] intranasal, alkylsaccharide 0.5%
[15] = Rizatriptan […] intranasal, alkylsaccharide 2%
[16] = Sumatriptan 6.2 mg/kg intranasal, alkylsaccharide 0.02%
[17] = Sumatriptan 6.2 mg/kg intranasal, alkylsaccharide 0.05%
[18] = Sumatriptan 6.2 mg/kg intranasal, alkylsaccharide 0.1%
[19] = Sumatriptan 6.2 mg/kg intranasal, alkylsaccharide 0.5%
[20] = Sumatriptan 6.2 mg/kg intranasal, alkylsaccharide 2%

CCCCCCCCCOC1O[C@H](CO)[C@@H](O)[C@H](O)[C@H]1O (some centres unmarked) [nonylglucoside, nonylglucopyranoside]
hypoglycemic effect / insulin absorption enhancement (blood D-glucose [1]; [4]): effectively stimulated insulin absorption | blood glucose level, initial (from) (blood D-glucose [1]; [5]): 297 mg/dL | blood glucose level, reduced (to) (blood D-glucose [1]; [5]): 150 mg/dL

CCCCCCCCCCCCCO[C@@H]1O[C@H](CO)[C@@H](O[C@H]2O[C@H](CO)[C@@H](O)[C@H](O)[C@H]2O)[C@H](O)[C@H]1O [tridecyl maltoside, tridecyl-β-D-maltoside]
glucagon absorption / blood D-glucose values (blood D-glucose [2]; eye drops surfactant plus glucagon in rats previously treated with surfactant plus insulin eye drops): increase significantly | Blood Glucose Concentration (blood D-glucose [2]; time 130 min): 82 mg/dL | Blood Glucose Concentration (blood D-glucose [2]; time 140 min): 121 mg/dL | Blood Glucose Concentration (blood D-glucose [2]; time 150 min): 148 mg/dL | Blood Glucose Concentration (blood D-glucose [2]; time 160 min): 173 mg/dL | Blood Glucose Concentration (blood D-glucose [2]; time 170 min): 162 mg/dL | Blood Glucose Concentration (blood D-glucose [2]; time 180 min): 162 mg/dL | Blood Glucose Concentration (blood D-glucose [2]; time 190 min): 156 mg/dL | Blood Glucose Concentration (blood D-glucose [1]; 0.5% surfactant, time −10 min, before insulin eye drops): 307 mg/dL | Blood Glucose Concentration (blood D-glucose [1]; 0.5% surfactant, time −20 min, before insulin eye drops): 255 mg/dL | hypoglycemic effect / insulin absorption enhancement (blood D-glucose [1]; [4]): effective | hypoglycemic effect / insulin absorption enhancement (blood D-glucose [1]; eye drops 0.2% insulin + […] enhancer): sustained for the two hour time course | Blood Glucose Concentration (blood D-glucose [1]; insulin eye drops + 0.5% surfactant, time 0 min): 323 mg/dL | Blood Glucose Concentration (blood D-glucose [1]; insulin eye drops + 0.5% surfactant, time 10 min): 309 mg/dL | Blood Glucose Concentration (blood D-glucose [1]; insulin eye drops + 0.5% surfactant, time 20 min): 217 mg/dL | Blood Glucose Concentration (blood D-glucose [1]; insulin eye drops + 0.5% surfactant, time 30 min): 131 mg/dL | Blood Glucose Concentration (blood D-glucose [1]; insulin eye drops + 0.5% surfactant, time 40 min): 100 mg/dL | Blood Glucose Concentration (blood D-glucose [1]; insulin eye drops + 0.5% surfactant, time 50 min): 87 mg/dL | Blood Glucose Concentration (blood D-glucose [1]; insulin eye drops + 0.5% surfactant, time 60 min): 107 mg/dL | Blood Glucose Concentration (blood D-glucose [1]; insulin eye drops + 0.5% surfactant, time 70 min): 115 mg/dL | Blood Glucose Concentration (blood D-glucose [1]; insulin eye drops + 0.5% surfactant, time 80 min): 79 mg/dL | Blood Glucose Concentration (blood D-glucose [1]; insulin eye drops + 0.5% surfactant, time 90 min): 85 mg/dL | Blood Glucose Concentration (blood D-glucose [1]; insulin eye drops + 0.5% surfactant, time 100 min): 76 mg/dL | Blood Glucose Concentration (blood D-glucose [1]; insulin eye drops + 0.5% surfactant, time 110 min): 74 mg/dL | Blood Glucose Concentration (blood D-glucose [1]; insulin eye drops + 0.5% surfactant, time 120 min): 75 mg/dL | Ratio Cmax(alkylsacch)/Cmax(No alkylsacch) [3, 6]: ≦1.5 | Tmax [3, 6]: ~1 h | Ratio Cmax(alkylsacch)/Cmax(No alkylsacch) [3, 7]: ≧1.5 | Tmax [3, 7]: ~0.083 to 0.25 h | Ratio Cmax(alkylsacch)/Cmax(No alkylsacch) [3, 8]: ≧1.5 | Tmax [3, 8]: ~0.083 to 0.25 h | Ratio Cmax(alkylsacch)/Cmax(No alkylsacch) [3, 9]: ≧1.5 | Tmax [3, 9]: ~0.083 to 0.25 h | Ratio Cmax(alkylsacch)/Cmax(No alkylsacch) [3, 10]: ≧1.5 | Tmax [3, 10]: ~0.083 to 0.25 h | Tmax [3, 11]: ~1 h | Tmax [3, 12]: ~0.083 to 0.25 h | Tmax [3, 13]: ~0.083 to 0.25 h | Tmax [3, 14]: ~0.083 to 0.25 h | Tmax [3, 15]: ~0.083 to 0.25 h | Ratio Cmax(alkylsacch)/Cmax(No alkylsacch) [3, 16]: ≦1.5 | Tmax [3, 16]: ~1 h | Ratio Cmax(alkylsacch)/Cmax(No alkylsacch) [3, 17]: ≧1.5 | Tmax [3, 17]: ~0.083 to 0.25 h | Ratio Cmax(alkylsacch)/Cmax(No alkylsacch) [3, 18]: ≧1.5 | Tmax [3, 18]: ~0.083 to 0.25 h | Ratio Cmax(alkylsacch)/Cmax(No alkylsacch) [3, 19]: ≧1.5 | Tmax [3, 19]: ~0.083 to 0.25 h | Ratio Cmax(alkylsacch)/Cmax(No alkylsacch) [3, 20]: ≧1.5 | Tmax [3, 20]: ~0.083 to 0.25 h

CCCCCCOC1O[C@H](CO)[C@@H](O)[C@H](O)[C@H]1O (some centres unmarked) [hexylglucoside, Hexylglucopyranoside]
hypoglycemic effect / insulin absorption enhancement (blood D-glucose [1]; [4]): ineffective

CCCCCCCCO[C@@H]1O[C@H](CO)[C@@H](O[C@H]2O[C@H](CO)[C@@H](O)[C@H](O)[C@H]2O)[C@H](O)[C@H]1O [octyl maltoside, Octyl-β-D-maltoside]
absorption enhancing activity by alkyl chain length (blood D-glucose [1]; ocular insulin, concentration not given): no | Ratio Cmax(alkylsacch)/Cmax(No alkylsacch) [3, 6]: ≦1.5 | Tmax [3, 6]: ~1 to 2 h | Ratio Cmax(alkylsacch)/Cmax(No alkylsacch) [3, 7]: ≦1.5 | Tmax [3, 7]: ~1 to 2 h | Ratio Cmax(alkylsacch)/Cmax(No alkylsacch) [3, 8]: ≦1.5 | Tmax [3, 8]: ~1 to 2 h | Ratio Cmax(alkylsacch)/Cmax(No alkylsacch) [3, 9]: ≦1.5 | Tmax [3, 9]: ~1 to 2 h | Ratio Cmax(alkylsacch)/Cmax(No alkylsacch) [3, 10]: ≦1.5 | Tmax [3, 10]: ~1 to 2 h | Tmax [3, 11]: ~1 to 2 h | Tmax [3, 12]: ~1 to 2 h | Tmax [3, 13]: ~1 to 2 h | Tmax [3, 14]: ~1 to 2 h | Tmax [3, 15]: ~1 to 2 h | Ratio Cmax(alkylsacch)/Cmax(No alkylsacch) [3, 16]: ≦1.5 | Tmax [3, 16]: ~1 to 2 h | Ratio Cmax(alkylsacch)/Cmax(No alkylsacch) [3, 17]: ≦1.5 | Tmax [3, 17]: ~1 to 2 h | Ratio Cmax(alkylsacch)/Cmax(No alkylsacch) [3, 18]: ≦1.5 | Tmax [3, 18]: ~1 to 2 h | Ratio Cmax(alkylsacch)/Cmax(No alkylsacch) [3, 19]: ≦1.5 | Tmax [3, 19]: ~1 to 2 h | Ratio Cmax(alkylsacch)/Cmax(No alkylsacch) [3, 20]: ≦1.5 | Tmax [3, 20]: ~1 to 2 h
